Where a SMILES comes first, the peptide text is derived from it. [ ]: non-standard residue; d: D form. hLeu = CC(C)CC[C@H](N)C(=O)O

Assay [1] has as its target T1, Interleukin-23 receptor (Homo sapiens, UniProt Q5VWK5).
T1 sequence (Q5VWK5 whole entry): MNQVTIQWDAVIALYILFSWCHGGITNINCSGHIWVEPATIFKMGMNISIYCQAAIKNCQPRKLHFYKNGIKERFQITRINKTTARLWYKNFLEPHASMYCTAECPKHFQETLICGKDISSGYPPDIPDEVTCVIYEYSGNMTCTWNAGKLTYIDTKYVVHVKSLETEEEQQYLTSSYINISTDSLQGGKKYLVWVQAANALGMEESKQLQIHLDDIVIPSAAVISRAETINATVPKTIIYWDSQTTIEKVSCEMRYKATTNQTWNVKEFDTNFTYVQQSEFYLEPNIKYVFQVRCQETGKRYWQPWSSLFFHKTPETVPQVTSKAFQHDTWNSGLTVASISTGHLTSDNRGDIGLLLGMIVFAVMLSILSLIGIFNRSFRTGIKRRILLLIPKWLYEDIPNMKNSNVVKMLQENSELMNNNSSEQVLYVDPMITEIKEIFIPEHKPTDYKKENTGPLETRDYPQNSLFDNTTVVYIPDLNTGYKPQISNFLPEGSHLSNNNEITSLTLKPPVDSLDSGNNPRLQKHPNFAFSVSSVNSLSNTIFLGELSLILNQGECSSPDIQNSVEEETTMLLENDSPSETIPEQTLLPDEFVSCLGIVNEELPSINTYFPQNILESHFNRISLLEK
Nature of the assay: Inhibition of interleukin-23 binding to human interleukin-23 receptor incubated for 2 hrs by competitive binding ELISA.

The target of assay [2] is T1, Interleukin-23 receptor. Nature of the assay: Inhibition of interleukin-23 receptor in human DB cells assessed as reduction in IL-23-stimulated STAT3 phosphorylation incubated for 30 mins by HTRF assay. Format: cell-based. Background: In TR-FRET formats the signal depends on donor and acceptor labels being close together.
The nature of assay [3]: Inhibition of interleukin-23 binding to rat interleukin-23 receptor incubated for 2 hrs by competitive binding ELISA. For orientation: An ELISA detects its analyte on a solid surface through an enzyme-linked reagent.

On to `COc1ccc(C[C@H](NC(=O)[C@@H](NC(=O)[C@H](CCC(N)=O)NC(=O)[C@H](Cc2c[nH]c3ccccc23)NC(=O)[C@@H](NC(=O)[C@H](CCC(N)=O)NC(=O)[C@@H](NCN2C(=O)COCC2=O)C(C)(C)S)[C@@H](C)O)C(C)(C)S)C(=O)N[C@@H](Cc2ccc3ccccc3c2)C(=O)N[C@@](C)(CCCCN)C(=O)N[C@@H](CCCCNC(C)=O)C(=O)N[C@@H](CC(N)=O)C(=O)NCC(N)=O)cc1`, for which the IC50 (commonly the concentration needed to halve the response being measured) is 25 to 100 nM in assay [1], 10 to 25 nM in assay [2] and 25 to 100 nM in assay [3].
As to `CC(=O)N[C@@H](CS)C(=O)N[C@@H](CO)C(=O)N[C@H](C(=O)N[C@@H](Cc1c[nH]c2ccccc12)C(=O)N[C@@H](CCC(N)=O)C(=O)N[C@@H](CS)C(=O)N[C@@H](Cc1ccc(O)cc1)C(=O)N[C@@H](Cc1c[nH]c2ccccc12)C(=O)N[C@@H](CC(C)C)C(=O)N[C@@H](CCCCN)C(=O)N[C@@H](Cc1cnc[nH]1)C(=O)NCC(=O)NCC(=O)N[C@@H](CCC(=O)O)C(N)=O)[C@@H](C)O` (Ac-CSTWQCYWLKHGGE-NH2), the IC50 in assay [2] turned out to be 2 nM; in assay [3], 24 nM.
For `CC(=O)N[C@@H](CS)C(=O)N[C@@H](CCC(N)=O)C(=O)N[C@H](C(=O)N[C@@H](Cc1c[nH]c2ccccc12)C(=O)N[C@@H](CCC(N)=O)C(=O)N[C@@H](CS)C(=O)N[C@@H](Cc1ccc(O)cc1)C(=O)N[C@@H](Cc1c[nH]c2ccccc12)C(=O)N[C@@](C)(CC(C)C)C(=O)N[C@@H](CCC(=O)O)C(=O)N[C@@H](CC(N)=O)C(=O)NCC(N)=O)[C@@H](C)O`, in that order: 5 nM and 27 nM.
In turn, `CC(=O)N[C@@H](CS)C(=O)N[C@@H](CCN)C(=O)N[C@H](C(=O)N[C@@H](Cc1c[nH]c2ccccc12)C(=O)N[C@@H](CCC(N)=O)C(=O)N[C@@H](CS)C(=O)N[C@@H](Cc1ccc(O)cc1)C(=O)N[C@@H](Cc1c[nH]c2ccccc12)C(=O)N[C@@H](CCCNC(=N)N)C(=O)N[C@H](C(=O)N[C@@H](Cc1ccccc1)C(=O)NCC(=O)NCCOCC(=O)N[C@H](CCCCN)C(N)=O)C(C)C)[C@@H](C)O` yielded an IC50 in assay [3] of 51 nM.
Consider `CC(=O)N[C@@H](CS)C(=O)N[C@@H](CCCNC(N)=O)C(=O)N[C@H](C(=O)N[C@@H](Cc1c[nH]c2ccccc12)C(=O)N[C@@H](CCC(N)=O)C(=O)N[C@@H](CS)C(=O)N[C@@H](Cc1ccc(O)cc1)C(=O)N[C@@H](Cc1c[nH]c2ccccc12)C(=O)N[C@@H](CCCNC(=N)N)C(=O)N[C@H](C(=O)N[C@@H](Cc1ccccc1)C(=O)NCC(=O)NCCC(=O)N[C@H](CCCCN)C(N)=O)C(C)C)[C@@H](C)O`, for which the IC50 in assay [1] was 50 nM; in assay [3] it was 76 nM.
`CC(=O)N[C@@H](CS)C(=O)N[C@@H](CCCNC(=N)N)C(=O)N[C@H](C(=O)N[C@@H](Cc1c[nH]c2ccccc12)C(=O)N[C@@H](CCC(N)=O)C(=O)N[C@@H](CS)C(=O)N[C@@H](Cc1ccc(O)cc1)C(=O)N[C@@H](Cc1c[nH]c2ccccc12)C(=O)N[C@@H](CCCNC(=N)N)C(=O)N[C@@H](CCC(=O)O)C(=O)N[C@@H](Cc1ccc(O)cc1)C(=O)NCC(=O)N[C@@H](C)C(=O)N[C@H](CCCCN)C(N)=O)[C@@H](C)O`: the concentration for half-maximal inhibition (IC50) in assay [2] was 8 nM; in assay [3], 80 nM.
With `CC(=O)N[C@@H](CS)C(=O)N[C@@H](CCC(N)=O)C(=O)N[C@H](C(=O)N[C@@H](Cc1c[nH]c2ccccc12)C(=O)N[C@@H](CCC(N)=O)C(=O)N[C@@H](CS)C(=O)N[C@@H](Cc1ccc(O)cc1)C(=O)N[C@@H](Cc1c[nH]c2ccccc12)C(=O)N[C@@H](CCC(C)C)C(=O)N[C@@H](CCC(=O)O)C(=O)N[C@@H](CCC(=O)O)C(=O)NCC(N)=O)[C@@H](C)O` (Ac-CQTWQCYW[hLeu]EEG-NH2), the IC50 in assay [3] was found to be 53 nM.
Still for that read-out and setting: the result for `CC(=O)N[C@@H](CS)C(=O)N[C@@H](CCC(N)=O)C(=O)N[C@H](C(=O)N[C@@H](Cc1c[nH]c2ccccc12)C(=O)N[C@@H](CCC(N)=O)C(=O)N[C@@H](CS)C(=O)N[C@@H](Cc1cccc2ccccc12)C(=O)N[C@@H](Cc1ccc2ccccc2c1)C(=O)N[C@@H](CCC(C)C)C(=O)N[C@@H](CCC(=O)O)C(=O)N[C@@H](CC(N)=O)C(=O)NCC(N)=O)[C@@H](C)O` reads 125 nM; that for `CC(=O)N[C@@H](CS)C(=O)N[C@@H](CCC(N)=O)C(=O)N[C@H](C(=O)N[C@@H](Cc1c[nH]c2ccccc12)C(=O)N[C@@H](CCC(N)=O)C(=O)N[C@@H](CS)C(=O)N[C@@H](Cc1ccc(O)cc1)C(=O)N[C@@H](Cc1cccc2ccccc12)C(=O)N[C@@](C)(CC(C)C)C(=O)N[C@@H](CCC(=O)O)C(=O)N[C@@H](CC(N)=O)C(=O)NCC(N)=O)[C@@H](C)O`, 67 nM; that for `CC(=O)N[C@@H](CS)C(=O)N[C@H](C(=O)N[C@H](C(=O)N[C@@H](Cc1c[nH]c2ccccc12)C(=O)N[C@@H](CCC(N)=O)C(=O)N[C@@H](CS)C(=O)N[C@@H](Cc1ccc(O)cc1)C(=O)N[C@@H](Cc1c[nH]c2ccccc12)C(=O)N[C@@H](CCC(C)C)C(=O)N[C@@H](CCC(=O)O)C(=O)N[C@@H](CC(N)=O)C(=O)NCC(N)=O)[C@@H](C)O)[C@@H](C)O` (Ac-CTTWQCYW[hLeu]ENG-NH2), 28 nM.
The same measure, in the same setting: for `CC(=O)N[C@@H](CS)C(=O)N[C@@H](CO)C(=O)N[C@H](C(=O)N[C@@H](Cc1c[nH]c2ccccc12)C(=O)N[C@@H](CCC(N)=O)C(=O)N[C@@H](CS)C(=O)N[C@@H](Cc1ccc(O)cc1)C(=O)N[C@@H](Cc1c[nH]c2ccccc12)C(=O)N[C@@H](CO)C(=O)N[C@@H](CCCCN)C(=O)N[C@@H](CCC(N)=O)C(=O)N[C@@H](CO)C(=O)NCC(=O)NCC(=O)N[C@@H](CO)C(N)=O)[C@@H](C)O` (Ac-CSTWQCYWSKQSGGS-NH2) the value was 204 nM; for `CC(=O)N[C@@H](CS)C(=O)N[C@@H](CCC(N)=O)C(=O)N[C@H](C(=O)N[C@@H](Cc1c[nH]c2ccccc12)C(=O)N[C@@H](CCC(N)=O)C(=O)N[C@@H](CS)C(=O)N[C@@H](Cc1ccc(O)cc1)C(=O)N[C@@H](Cc1c[nH]c2ccccc12)C(=O)N[C@@H](CCC(C)C)C(=O)N[C@@H](CCC(=O)O)C(=O)N1CCC[C@H]1C(=O)NCC(N)=O)[C@@H](C)O`, 140 nM.
With `CC(=O)NCCCC[C@H](NC(=O)[C@H](CCC(C)C)NC(=O)[C@H](Cc1c[nH]c2ccccc12)NC(=O)[C@H](Cc1ccc(O)cc1)NC(=O)[C@H](CS)NC(=O)[C@H](CCC(N)=O)NC(=O)[C@H](Cc1c[nH]c2ccccc12)NC(=O)[C@@H](NC(=O)[C@H](CCC(N)=O)NC(=O)[C@H](CS)NC(C)=O)[C@@H](C)O)C(=O)N[C@@H](CC(N)=O)C(=O)NCC(N)=O`, the values for the IC50 in assay [2] and in assay [3] were 3 nM and 32 nM, respectively.
With `CC(=O)N[C@@H](CS)C(=O)N[C@@H](CCC(N)=O)C(=O)N[C@H](C(=O)N[C@@H](Cc1c[nH]c2ccccc12)C(=O)N[C@@H](CCC(N)=O)C(=O)N[C@@H](CS)C(=O)N[C@@H](Cc1ccc(O)cc1)C(=O)N[C@@H](Cc1cccc2ccccc12)C(=O)N[C@@H](CCC(C)C)C(=O)N[C@@H](CCC(=O)O)C(=O)N[C@@H](CC(N)=O)C(=O)NCC(N)=O)[C@@H](C)O`, the IC50 in assay [3] came out at 37 nM.
For `CC(=O)N[C@@H](CS)C(=O)N[C@@H](CCC(N)=O)C(=O)N[C@H](C(=O)N[C@@H](Cc1c[nH]c2ccccc12)C(=O)N[C@@H](CCC(N)=O)C(=O)N[C@@H](CS)C(=O)N[C@@H](Cc1ccc(O)cc1)C(=O)N[C@@H](Cc1c[nH]c2ccccc12)C(=O)N[C@@H](CCC(C)C)C(=O)N[C@@H](CCC(=O)O)C(=O)N[C@@H](CC(N)=O)C(=O)NCC(=O)NCC(N)=O)[C@@H](C)O`, the IC50 was 61 to 362 nM in assay [1] and 140 nM in assay [3].
`CC(=O)N[C@@H](CC(C)C)C(=O)N[C@@H](CS)C(=O)N[C@@H](CCC(N)=O)C(=O)N[C@H](C(=O)N[C@@H](Cc1c[nH]c2ccccc12)C(=O)N[C@@H](CCC(N)=O)C(=O)N[C@@H](CS)C(=O)N[C@@H](Cc1ccc(O)cc1)C(=O)N[C@@H](Cc1c[nH]c2ccccc12)C(=O)N[C@@H](CCC(C)C)C(=O)N[C@@H](CCC(=O)O)C(=O)N[C@@H](CC(N)=O)C(=O)NCC(N)=O)[C@@H](C)O`: the IC50 in assay [3] is 26 nM.
`CC(=O)N[C@@H](CS)C(=O)N[C@@H](CC(N)=O)C(=O)N[C@H](C(=O)N[C@@H](Cc1c[nH]c2ccccc12)C(=O)N[C@@H](CCC(N)=O)C(=O)N[C@@H](CS)C(=O)N[C@@H](Cc1ccc(O)cc1)C(=O)N[C@@H](Cc1c[nH]c2ccccc12)C(=O)N[C@@H](CCCNC(=N)N)C(=O)N[C@H](C(=O)N[C@@H](Cc1ccccc1)C(=O)NCC(=O)NCCOCC(=O)N[C@H](CCCCN)C(N)=O)C(C)C)[C@@H](C)O` registered an IC50 in assay [3] of 79 nM.
The same measure, in the same setting: the result for `CC(=O)N[C@@H](CS)C(=O)N[C@@H](CCCNC(=N)N)C(=O)N[C@H](C(=O)N[C@@H](Cc1c[nH]c2ccccc12)C(=O)N[C@@H](CCC(N)=O)C(=O)N[C@@H](CS)C(=O)N[C@@H](Cc1ccc(O)cc1)C(=O)N[C@@H](Cc1c[nH]c2ccccc12)C(=O)N[C@@H](CO)C(=O)N[C@@H](CCC(=O)O)C(=O)N[C@@H](Cc1ccccc1)C(=O)NCC(=O)N[C@H](C(=O)NCC(=O)N[C@@H](CCC(=O)O)C(N)=O)[C@@H](C)O)[C@@H](C)O` (Ac-CRTWQCYWSEFGTGE-NH2) reads 778 nM.

Values taken from ChEMBL document CHEMBL4417631, “Oral peptide inhibitors of interleukin-23 receptor and their use to treat inflammatory bowel diseases” (2017).
